The supplement of paper PMC10307832

Experiments:
Test in all cases: relative viability (nuclei count vs DMSO), 5 days (fraction); higher = more cells survive
AT9283 + Pictilisib = compound: O=C(Nc1c[nH]nc1-c1nc2ccc(CN3CCOCC3)cc2[nH]1)NC1CC1 [AT9283] + CS(=O)(=O)N1CCN(Cc2cc3nc(-c4cccc5[nH]ncc45)nc(N4CCOCC4)c3s2)CC1 [Pictilisib] (partner 1 µM)
Outline: (§1)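 Each reported value is a median over duplicate plates. It expresses relative viability: treated-well nuclei count divided by vehicle-well nuclei count. Lung cancer cell lines in 1536-well plates were dosed by pin tool a day after seeding, alone with one drug or with a fixed anchor-drug dose plus five library-drug doses (not always all listed) in √10 steps, and nuclei were counted after 5 days.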

Erlotinib + Pemetrexed = compound: C#Cc1cccc(Nc2ncnc3cc(OCCOC)c(OCCOC)cc23)c1 [Erlotinib] + Nc1nc2[nH]cc(CCc3ccc(C(=O)N[C@@H](CCC(=O)O)C(=O)O)cc3)c2c(=O)[nH]1 [Pemetrexed] (partner 0.2 µM)
Outline: as §1

AT9283 + Decitabine = compound: O=C(Nc1c[nH]nc1-c1nc2ccc(CN3CCOCC3)cc2[nH]1)NC1CC1 [AT9283] + Nc1ncn([C@H]2C[C@H](O)[C@@H](CO)O2)c(=O)n1 [Decitabine] (partner 2 µM)
Outline: as §1

AT9283 + Luminespib = compound: O=C(Nc1c[nH]nc1-c1nc2ccc(CN3CCOCC3)cc2[nH]1)NC1CC1 [AT9283] + CCNC(=O)c1noc(-c2cc(C(C)C)c(O)cc2O)c1-c1ccc(CN2CCOCC2)cc1 [Luminespib] (partner 0.01 µM)
Outline: as §1

AT9283 + Bortezomib = compound: O=C(Nc1c[nH]nc1-c1nc2ccc(CN3CCOCC3)cc2[nH]1)NC1CC1 [AT9283] + CC(C)C[C@H](NC(=O)[C@H](Cc1ccccc1)NC(=O)c1cnccn1)B(O)O [Bortezomib] (partner 0.002 µM)
Outline: as §1

Cell Line | relative viability (AT9283 + Pictilisib; first compound 0.003 µM) | relative viability (AT9283 + Pictilisib; first compound 0.03 µM) | relative viability (AT9283 + Pictilisib; first compound 0.09487 µM) | relative viability (AT9283 + Pictilisib; first compound 0.3 µM) | relative viability (Erlotinib + Pemetrexed; first compound 0.02 µM) | relative viability (Erlotinib + Pemetrexed; first compound 0.2 µM) | relative viability (Erlotinib + Pemetrexed; first compound 0.6325 µM) | relative viability (Erlotinib + Pemetrexed; first compound 2 µM) | relative viability (AT9283 + Decitabine; first compound 0.003 µM) | relative viability (AT9283 + Decitabine; first compound 0.03 µM) | relative viability (AT9283 + Decitabine; first compound 0.09487 µM) | relative viability (AT9283 + Decitabine; first compound 0.3 µM) | relative viability (AT9283 + Luminespib; first compound 0.003 µM) | relative viability (AT9283 + Luminespib; first compound 0.03 µM) | relative viability (AT9283 + Luminespib; first compound 0.09487 µM) | relative viability (AT9283 + Luminespib; first compound 0.3 µM) | relative viability (AT9283 + Bortezomib; first compound 0.003 µM) | relative viability (AT9283 + Bortezomib; first compound 0.03 µM) | relative viability (AT9283 + Bortezomib; first compound 0.09487 µM) | relative viability (AT9283 + Bortezomib; first compound 0.3 µM)
SK-MES-1 | 0.345 | 0.314 | 0.158 | 0.147 | 1.07 | 0.519 | 0.545 | 0.418 | 0.396 | 0.334 | 0.306 | 0.138 | 0.885 | 0.821 | 0.405 | 0.22 | – | – | – | –
H3255 | 0.448 | 0.461 | 0.213 | 0.148 | 0.528 | 0.387 | 0.383 | 0.233 | 0.577 | 0.556 | 0.352 | 0.222 | 0.713 | 0.905 | 0.969 | 0.254 | 0.632 | 0.719 | 0.542 | 0.172
NCI-H2126 | 0.48 | 0.493 | 0.375 | 0.26 | 0.717 | 0.6 | 0.415 | 0.376 | 0.589 | 0.625 | 0.439 | 0.303 | 0.949 | 0.954 | 0.826 | 0.422 | 1.11 | 1.09 | 1.1 | 0.528
NCI-H1703 | 0.234 | 0.216 | 0.205 | 0.196 | – | – | – | – | – | – | – | – | – | – | – | – | 0.452 | 0.196 | 0.141 | 0.169
SW 1573 | 0.453 | 0.251 | 0.2 | 0.127 | 0.886 | 0.746 | 0.865 | 0.805 | 0.394 | 0.175 | 0.171 | 0.143 | 0.199 | 0.148 | 0.142 | 0.169 | 1.04 | 0.304 | 0.279 | 0.236
NCI-H838 | 0.544 | 0.265 | 0.182 | 0.216 | 0.263 | 0.253 | 0.233 | 0.266 | 0.436 | 0.293 | 0.265 | 0.226 | 0.341 | 0.232 | 0.203 | 0.22 | 0.777 | 0.228 | 0.184 | 0.231
NCI-H1792 | 0.215 | 0.334 | 0.0902 | 0.0932 | 1.05 | 0.629 | 1.02 | 0.51 | 0.499 | 0.56 | 0.567 | 0.345 | 0.264 | 0.454 | 0.382 | 0.229 | 0.918 | 0.985 | 0.961 | 0.701
NCI-H1651 | 0.59 | 0.572 | 0.24 | 0.255 | 0.619 | 0.417 | 0.509 | 0.52 | 0.371 | 0.516 | 0.428 | 0.318 | 0.725 | 0.826 | 0.773 | 0.623 | 0.914 | 0.897 | 0.902 | 0.618
HARA | 0.373 | 0.425 | 0.0788 | 0.0662 | 0.259 | 0.21 | 0.186 | 0.222 | 0.46 | 0.264 | 0.165 | 0.185 | 0.755 | 0.189 | 0.0743 | 0.124 | 0.795 | 1.05 | 0.172 | 0.158
NCI-H1944 | 0.327 | 0.307 | 0.221 | 0.224 | 0.586 | 0.506 | 0.536 | 0.358 | 0.415 | 0.388 | 0.212 | 0.267 | 0.778 | 0.483 | 0.195 | 0.205 | – | – | – | –
SK-LU-1 | 0.603 | 0.348 | 0.217 | 0.197 | 1.07 | 1.01 | 1.05 | – | 0.62 | 0.423 | 0.415 | 0.407 | 0.203 | 0.203 | 0.209 | 0.157 | 1.21 | 1.02 | 0.646 | 0.279
NCI-H650 | 0.853 | 0.816 | 0.274 | 0.186 | 0.966 | 0.852 | 0.991 | 1 | 0.319 | 0.333 | 0.229 | 0.162 | 0.771 | 0.701 | 0.242 | 0.173 | 0.652 | 0.775 | 0.561 | 0.14
PC-14 | 0.534 | 0.657 | 0.0566 | 0.0616 | 0.11 | 0.168 | 0.15 | 0.133 | 0.199 | 0.157 | 0.0721 | 0.0727 | 0.156 | 0.15 | 0.121 | 0.0746 | 0.944 | 0.704 | 0.179 | 0.116
NCI-H2170 | 0.309 | 0.234 | 0.176 | 0.151 | 0.275 | 0.261 | 0.242 | 0.237 | 0.466 | 0.366 | 0.228 | 0.156 | 0.821 | 0.574 | 0.509 | 0.176 | – | – | – | –
CAL-12T | 0.354 | 0.297 | 0.23 | 0.31 | 1.43 | 1.15 | 0.929 | 0.662 | – | – | – | – | 0.149 | 0.548 | 0.627 | 0.18 | 0.89 | 0.896 | 0.547 | 0.212
IA-LM | 0.379 | 0.271 | 0.143 | 0.143 | – | – | – | – | – | – | – | – | – | – | – | – | 0.748 | 0.367 | 0.112 | 0.0951
A-427 | 0.744 | 0.606 | 0.19 | 0.208 | 0.967 | 1.04 | 1.06 | 1.01 | 0.6 | 0.494 | 0.239 | 0.248 | 0.822 | 0.486 | 0.319 | 0.176 | 0.977 | 0.427 | 0.216 | 0.188
